biological target: T1, human CRHR2-alpha (Homo sapiens, UniProt Q13324); assay: cAMP functional assay for human CRHR2 (LANCE Ultra cAMP, TR-FRET); format: cell-based; conditions: CHO-K1 cells expressing human CRHR2-alpha, agonist human urocortin2 at EC80, cAMP; read-out: IC50 against CRHR2
T1 sequence (Q13324 1-411): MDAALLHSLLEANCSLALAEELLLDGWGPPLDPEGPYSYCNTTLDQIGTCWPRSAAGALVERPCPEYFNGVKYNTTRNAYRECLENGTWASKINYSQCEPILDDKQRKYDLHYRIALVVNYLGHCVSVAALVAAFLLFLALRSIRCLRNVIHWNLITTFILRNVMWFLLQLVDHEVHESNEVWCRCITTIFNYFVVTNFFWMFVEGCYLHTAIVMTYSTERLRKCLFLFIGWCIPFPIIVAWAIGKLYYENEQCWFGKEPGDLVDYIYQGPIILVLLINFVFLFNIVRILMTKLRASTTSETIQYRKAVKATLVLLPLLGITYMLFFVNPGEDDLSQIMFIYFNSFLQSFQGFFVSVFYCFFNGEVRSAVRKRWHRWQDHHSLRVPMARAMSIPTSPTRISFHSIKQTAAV
How it was run: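 First, starved and frozen CHO-K1 cells expressing the receptor are thawed into IBMX-containing HBSS buffer (pH 7.4). Next, compounds are added for 30 min at 25° C. Then agonist at EC80 (urocortin2 or CRF, per receptor) is added for another 30 min, followed by cAMP detection reagents.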

SMILES	IC50 [nM]
Cc1ncc(Cl)cc1C(=O)N[C@H]1CC[C@H](Cn2c(=O)n(-c3cnc4c(C)n[nH]c4c3)c3ccccc32)CC1 [Example 172, 5-chloro-2-methyl-N-((1r,4r)-4-((3-(3-methyl-1H-pyrazolo[4,3-b]pyridin-6-yl)-2-oxo-2,3-dihydro-1H-benzo[d]imidazol-1-yl)methyl)cyclohexyl)nicotinamide]	< 300
Cc1ncc(Cl)cc1C(=O)N[C@H]1CC[C@H](Cn2c(=O)n(-c3ccc(C(=O)Nc4ccn(C)n4)nc3)c3ccccc32)CC1 [Example 173, 5-(3-(((1r,4r)-4-(5-chloro-2-methylnicotinamido)cyclohexyl)methyl)-2-oxo-2,3-dihydro-1H-benzo[d]imidazol-1-yl)-N-(1-methyl-1H-pyrazol-3-yl)picolinamide]	< 300
Cc1ncc(Cl)cc1C(=O)N[C@H]1CC[C@H](Cn2c(=O)n(-c3ccc(C(=O)Nc4cccnn4)nc3)c3ccccc32)CC1 [Example 175, 5-(3-(((1r,4r)-4-(5-chloro-2-methylnicotinamido)cyclo-hexyl)methyl)-2-oxo-2,3-dihydro-1H-benzo[d]imidazol-1-yl)-N-(pyridazin-3-yl) picolinamide]	< 300
Cc1ncc(Cl)cc1C(=O)N[C@H]1CC[C@H](Cn2c(=O)n(-c3ccc(C(=O)NCc4ccon4)nc3)c3ccccc32)CC1 [Example 176, 5-(3-(((1r,4r)-4-(5-chloro-2-methylnicotinamido)cyclo-hexyl)methyl)-2-oxo-2,3-dihydro-1H-benzo[d]imidazol-1-yl)-N-(isoxazol-3-ylmethyl) picolinamide]	< 300
Cc1ncc(Cl)cc1C(=O)N[C@H]1CC[C@H](Cn2c(=O)n(-c3ccc(C(=O)NCc4cocn4)nc3)c3ccccc32)CC1 [Example 179, 5-(3-(((1r,4r)-(5-chloro-2-methylnicotinamido)cyclo-hexyl)methyl)-2-oxo-2,3-dihydro-1H-benzo[d]imidazol-1-yl)-N-(oxazol-4-ylmethyl) picolinamide]	< 300
Cc1csc(CNC(=O)c2ccc(-n3c(=O)n(C[C@H]4CC[C@H](NC(=O)c5cc(Cl)cnc5C)CC4)c4ccccc43)cn2)n1 [Example 180, 5-(3-(((1r,4r)-4-(5-chloro-2-methylnicotinamido)cyclo-hexyl)methyl)-2-oxo-2,3-dihydro-1H-benzo[d]imidazol-1-yl)-N-((4-methylthiazol-2-yl)methyl)picolinamide]	< 300

Continued, values first:

IC50 [nM]	SMILES
< 300	Cc1ncc(Cl)cc1C(=O)N[C@H]1CC[C@H](Cn2c(=O)n(-c3ccc(C(=O)Nc4ccccn4)nc3)c3ccccc32)CC1 [Example 174, 5-(3-(((1r,4r)-4-(5-chloro-2-methylnicotinamido)cyclo-hexyl)methyl)-2-oxo-2,3-dihydro-1H-benzo[d]imidazol-1-yl)-N-(pyridin-2-yl) picolinamide]
< 300	Cc1ncc(Cl)cc1C(=O)N[C@H]1CC[C@H](Cn2c(=O)n(-c3ccc(C(=O)Nc4cccnc4)nc3)c3ccccc32)CC1 [Example 177, 5-(3-(((1r,4r)-4-(5-chloro-2-methylnicotinamido)cyclo-hexyl)methyl)-2-oxo-2,3-dihydro-1H-benzo[d]imidazol-1-yl)-N-(pyridin-3-yl) picolinamide]
< 300	Cc1ncc(Cl)cc1C(=O)N[C@H]1CC[C@H](Cn2c(=O)n(-c3ccc(C(=O)Nc4cncnc4)nc3)c3ccccc32)CC1 [Example 178, 5-(3-(((1r,4r)-4-(5-chloro-2-methylnicotinamido)cyclo-hexyl)methyl)-2-oxo-2,3-dihydro-1H-benzo[d]imidazol-1-yl)-N-(pyrimidin-5-yl) picolinamide]
< 300	Cc1ncc(Cl)cc1C(=O)N[C@H]1CC[C@H](Cn2c(=O)n(-c3ccc(C(=O)Nc4ccncc4)nc3)c3ccccc32)CC1 [Example 181, 5-(3-(((1r,4r)-4-(5-chloro-2-methylnicotinamido)cyclo-hexyl)methyl)-2-oxo-2,3-dihydro-1H-benzo[d]imidazol-1-yl)-N-(pyridin-4-yl) picolinamide]

— patent US11802120B2, “Fused cyclic urea derivatives as CRHR2 antagonist” (RaQualia Pharma Inc., priority 2018, dated 2023)
